This test concerns the target T1, wt human LRRK2, catalytic site (Homo sapiens, UniProt Q5S007).
T1 construct: wt human LRRK2, catalytic site; purchased ThermoFisher/USA
Kind of test: TR-FRET LanthaScreen Tb Kinase Activity Assay (Example 71). The format is biochemical. Particulars: compounds of Table 4, 38 uM ATP, method names only wt human LRRK2, read-out: IC50, Inhibitory Activity Toward LRRK2 (Wt) and LRRK2 (G2019). How it is done: The compounds in Table 4 were tested for their inhibitory effect on LRRK2 kinases according to the following procedures.
The basic protocol for TR-FRET LanthaScreen Tb Kinase Activity Assay inhibitor studies were performed as follows. LanthaScreen Kinase Activity Assays (ThermoFisher/USA) to evaluate inhibitors were performed by addition of 100 nl of test compound in corresponding DMSO dilutions/5 μl of kinase/fluorescein-ERM(LRRKtide) peptide mixture, 5 μl of ATP into 384 well small volume plates. After incubation for 120 minutes at room temperature, the detection reagents containing Tb-anti-pLRRKtide antibody were added to monitor phosphrylation level of peptide. Then, after 60 min minutes incubation at room temperature plates were read in Envision. Data analysis of emission ratios was according to LanthaScreen Tb Kinase Activity Assay protocol.
Kinase and assay components were adjusted to final concentrations according to the kit protocol. For LRRK2: 2 nM wt human LRRK2, catalytic site, catalytic site (ThermoFisher/USA), 400 nM peptide, 38 uM ATP in 1× Kinase Buffer A.
Basic protocol for TR-FRET LanthaScreen Tb Kinase Activity Assay inhibitor studies involved two steps:
Enzymatic step: Addition of 100 nl of test compound in corresponding DMSO dilutions, 5 μl of kinase/substrate mixture, 5 μl of ATP into 384 well small volume plates. Incubation for 120 minutes at room temperature.
Detection step: Addition of 10 μl EDTA & antibody, read plate after 60 minutes. Data analysis of emission ratios according to KinEASE assay protocol.
A general note: TR-FRET usually uses a lanthanide donor and a delayed reading to cut background.

T1 sequence (Q5S007 1879-2138 limits assumed): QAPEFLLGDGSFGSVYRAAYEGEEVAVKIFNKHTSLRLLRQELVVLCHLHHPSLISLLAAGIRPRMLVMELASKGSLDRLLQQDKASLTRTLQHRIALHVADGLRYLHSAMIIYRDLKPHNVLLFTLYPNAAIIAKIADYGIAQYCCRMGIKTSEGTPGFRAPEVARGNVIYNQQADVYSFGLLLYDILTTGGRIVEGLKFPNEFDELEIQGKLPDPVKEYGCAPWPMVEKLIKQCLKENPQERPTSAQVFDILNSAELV

As for `C[C@@H]1CCN2C(c3c(F)cccc3F)=Nc3cn[nH]c3-c3cnn1c32` (single isomer, unassigned) [Compound 346], the IC50 (usually the concentration at which inhibition is half-maximal) fell in the range of 10 to 100 nM.

For `C[C@H]1CCN2C(c3c(F)cccc3F)=Nc3cn[nH]c3-c3cnn1c32` (single isomer, unassigned) [Compound 347], the IC50 was less than 10 nM.

Regarding `C[C@@H]1CN2C(c3c(F)cccc3F)=Nc3cn[nH]c3-c3cnn(c32)C1` (single isomer, unassigned) [Compound 349], the IC50 was less than 10 nM.

In the case of `C[C@H]1CN2C(c3c(F)cccc3F)=Nc3cn[nH]c3-c3cnn(c32)C1` (single isomer, unassigned) [Compound 350], the IC50 fell in the range of 10 to 100 nM.

`Cc1cccc(F)c1C1=Nc2cn[nH]c2-c2cnn3c2N1CCC3` [Compound 340, 9-(2-fluoro-6-methylphenyl)-3,6,7,8-tetrahydro-2,3,5,5a,8a,10 hexaazabenzo[cd]cyclopenta[h]azulene]: the IC50 was less than 10 nM.

As for `Fc1cccc(Cl)c1C1=Nc2cn[nH]c2-c2cnn3c2N1CCC3` [Compound 341, 9-(2-chloro-6-fluorophenyl)-3,6,7,8-tetrahydro-2,3,5,5a,8a,10-hexaazabenzo[cd]cyclopenta[h]azulene], the IC50 was less than 10 nM.

Regarding `Clc1cccc(Cl)c1C1=Nc2cn[nH]c2-c2cnn3c2N1CCC3` [Compound 342, 9-(2,6-dichlorophenyl)-3,6,7,8-tetrahydro-2,3,5,5a,8a,10-hexaazabenzo[cd]cyclopenta[h]azulene], the concentration for half-maximal inhibition (IC50) is 10 to 100 nM.

`Cc1cc(F)c(C2=Nc3cn[nH]c3-c3cnn4c3N2CCC4)c(F)c1` [Compound 343, 9-(2,6-difluoro-4-methylphenyl)-3,6,7,8-tetrahydro-2,3,5,5a,8a,10 hexaazabenzo[cd]cyclopenta[h]azulene]: the IC50 was less than 10 nM.

On to `Fc1cccc(F)c1C1=Nc2cn[nH]c2-c2cnn3c2N1CCCC3` [Compound 344, 10-(2,6-difluorophenyl)-6,7,8,9-tetrahydro-3H-2,3,5,5a,9a,11-hexaazadicyclopenta[b,kl]heptalene], for which the IC50 was 10 to 100 nM.

Consider `CC1CCN2C(c3c(F)cccc3F)=Nc3cn[nH]c3-c3cnn1c32` (centres unmarked) [Compound 345, 9-(2,6-difluorophenyl)-6-methyl-3,6,7,8-tetrahydro-2,3,5,5a,8a,10-hexaazabenzo[cd]cyclopenta[h]azulene], for which the IC50 is less than 10 nM.

On to `CC1CN2C(c3c(F)cccc3F)=Nc3cn[nH]c3-c3cnn(c32)C1` (centres unmarked) [Compound 348, 9-(2,6-difluorophenyl)-7-methyl-2,6,7,8-tetrahydro-2,3,5,5a,8a,10-hexaazabenzo[cd]cyclopenta[h]azulene], for which the IC50 is less than 10 nM.

For the molecule `CC1CCn2ncc3c2N1C(c1c(F)cccc1F)=Nc1cn[nH]c1-3` (centres unmarked) [Compound 351, 9-(2,6-difluorophenyl)-8-methyl-3,6,7,8-tetrahydro-2,3,5,5a,8a,10-hexaazabenzo[cd]cyclopenta[h]azulene], the IC50 was in the range of 10 to 100 nM.

On to `Cc1nc2c3n1CCCN3C(c1c(F)cccc1F)=Nc1cn[nH]c1-2` [Compound 352], for which the IC50 was greater than 1000 nM.

For the molecule `Fc1ccc(Br)c(F)c1C1=Nc2cn[nH]c2-c2cnn3c2N1CCC3` [Compound 353, 9-(3-bromo-2,6-difluorophenyl)-3,6,7,8-tetrahydro-2,3,5,5a,8a,10-hexaazabenzo[cd]cyclopenta[h]azulene], the IC50 was less than 10 nM.

`Cc1ccc(F)c(C2=Nc3cn[nH]c3-c3cnn4c3N2CCC4)c1F` [Compound 354, 9-(2,6-difluoro-3-methylphenyl)-3,6,7,8-tetrahydro-2,3,5,5a,8a,10 Hexaazabenzo[cd]cyclopenta[h]azulene]: the IC50 was less than 10 nM.

As for `Fc1ccc(Br)c(Cl)c1C1=Nc2cn[nH]c2-c2cnn3c2N1CCC3` [Compound 355, 8-(3-bromo-2-chloro-6-fluoro-phenyl)-3,4,7,9,13,14-hexazatetracyclo-[7.6.1.02,6.013,16]hexadeca-1(16),2(6),4,7,14-pentaene], the IC50 was less than 10 nM.

Take `Fc1cccc(C2CC2)c1C1=Nc2cn[nH]c2-c2cnn3c2N1CCC3` [Compound 356, 9-(2-cyclopropyl-6-fluorophenyl)-3,6,7,8-tetrahydro-2,3,5,5a,8a,10-hexaazabenzo[cd]cyclopenta[h]azulene]: the IC50 was 10 to 100 nM.

As to `N#Cc1cc(F)c(C2=Nc3cn[nH]c3-c3cnn4c3N2CCC4)c(F)c1` [Compound 358], the IC50 lay in the range of 10 to 100 nM.

Regarding `OCc1cc(F)c(C2=Nc3cn[nH]c3-c3cnn4c3N2CCC4)c(F)c1` [Compound 359, (3,5-difluoro-4-(3,6,7,8-tetrahydro-2,3,5,5a,8a,10-hexaazabenzo[cd]cyclopenta[h]azulen-9-yl)phenyl)methanol], the IC50 was in the range of 10 to 100 nM.

For the molecule `COc1cc(F)c(C2=Nc3cn[nH]c3-c3cnn4c3N2CCC4)c(F)c1` [Compound 360, 8-(2,6-difluoro-4-methoxy-phenyl)-3,4,7,9,13,14-hexazatetracyclo[7.6.1.02,6.013,16]hexadeca-1(16),2(6),4,7,14-pentaene], the IC50 was in the range of 10 to 100 nM.

`c1ccc(C2=Nc3cn[nH]c3-c3cnn4c3N2CCC4)cc1` [Compound 361, 8-phenyl-3,4,7,9,13,14-hexazatetracyclo[7.6.1.02,6.013,16]hexadeca-1(16),2(6),4,7,14-pentaene]: the IC50 fell in the range of 10 to 100 nM.

As to `Fc1ccccc1C1=Nc2cn[nH]c2-c2cnn3c2N1CCC3` [Compound 362, 9-(2-fluorophenyl)-3,6,7,8-tetrahydro-2,3,5,5a,8a,10-hexaazabenzo[cd]cyclopenta[h]azulene], the IC50 is 10 to 100 nM.

Take `Fc1ccccc1C1=Nc2cn[nH]c2-c2cnn3c2N1CCCC3` [Compound 363, 10-(2-fluorophenyl)-6,7,8,9-tetrahydro-3H-2,3,5,5a,9a,11-hexaazadicyclopenta[b,kl]heptalene]: the IC50 lay in the range of 100 to 1000 nM.

Consider `Clc1ccccc1C1=Nc2cn[nH]c2-c2cnn3c2N1CCCC3` [Compound 364, 10-(2-chlorophenyl)-6,7,8,9-tetrahydro-3H-2,3,5,5a,9a,11-hexaazadicyclopenta[b,kl]heptalene], for which the IC50 fell in the range of 100 to 1000 nM.

In the case of `Fc1cccnc1C1=Nc2cn[nH]c2-c2cnn3c2N1CCCC3` [Compound 365, 10-(3-fluoropyridin-2-yl)-6,7,8,9-tetrahydro-3H-2,3,5,5a,9a,11-hexaazadicyclopenta[b,kl]heptalene], the IC50 is greater than 1000 nM.

Take `Cc1nn2c3c1-c1[nH]ncc1N=C(c1c(F)cccc1F)N3CCC2` [Compound 366, 9-(2,6-difluorophenyl)-4-methyl-3,6,7,8-tetrahydro-2,3,5,5a,8a,10-hexaazabenzo[cd]cyclopenta[h]azulene]: the IC50 lay in the range of 100 to 1000 nM.

For `Fc1ccc(F)c(C2=Nc3cn[nH]c3-c3cnn4c3N2CCC4)c1F` [Compound 367, 8-(2,3,6-trifluorophenyl)-3,4,7,9,13,14-hexazatetracyclo[7.6.1.02,6.013,16]hexadeca-1(16),2(6),4,7,14-pentaene], the IC50 was in the range of 10 to 100 nM.

Regarding `Fc1ccc(Cl)c(F)c1C1=Nc2cn[nH]c2-c2cnn3c2N1CCC3` [Compound 368, 8-(3-chloro-2,6-difluoro-phenyl)-3,4,7,9,13,14-hexazatetracyclo[7.6.1.02,6.013,16]hexadeca-1(16),2(6),4,7,14-pentaene], the IC50 is less than 10 nM.

For `Fc1cccc(F)c1C1=Nc2cn[nH]c2-n2ncc3c2N1CCC3` [Compound 369, 9-(2,6-difluorophenyl)-3,6,7,8-tetrahydro-2,3,3b,4,8a,10-hexaazabenzo[cd]cyclopenta[h]azulene], the IC50 lay in the range of 100 to 1000 nM.

As to `Cc1n[nH]c2c1N=C(c1c(F)cccc1F)N1CCCn3ncc-2c31` [Compound 370, 9-(2,6-difluorophenyl)-1-methyl-3,6,7,8-tetrahydro-2,3,5,5a,8a,10-hexaazabenzo[cd]cyclopenta[h]azulene], the IC50 is less than 10 nM.

For the molecule `Fc1cccc(F)c1C1=Nc2c(Cl)n[nH]c2-c2cnn3c2N1CCC3` [Compound 371, 5-chloro-8-(2,6-difluorophenyl)-3,4,7,9,13,14-hexazatetracyclo[7.6.1.02,6.013,16]hexadeca-1(16),2(6),4,7,14-pentaene], the IC50 was less than 10 nM.

For the molecule `Cc1n[nH]c2c1N=C(c1c(F)cccc1F)N1CCn3ncc-2c31` [Compound 372, 8-(2,6-difluorophenyl)-5-methyl-3,4,7,9,12,13-hexazatetrahydro[7.5.1.02,6.012,15]pentadeca-1(15),2,5,7,13-pentaene], the IC50 is less than 10 nM.

Take `Fc1cccc(F)c1C1=Nc2cn[nH]c2-c2cnn3c2N1CC3` [Compound 373, 3-(2,6-difluorophenyl)-2,7-dihydro-1H-2a,4,6,7,9,9a-hexaazadicyclopenta[cd,f]azulene]: the IC50 is less than 10 nM.

`Cc1nn2c3c1CCCN3C(c1c(F)cccc1F)=Nc1cn[nH]c1-2` [Compound 374, 8-(2,6-difluorophenyl)-14-methyl-1,3,4,7,9,15-hexazatetracyclo[7.6.1.02,6.013,16]hexadeca-2(6),4,7,13(16),14-pentaene]: the IC50 lay within 100 to 1000 nM.

`Fc1cccc(F)c1C1=Nc2c(Cl)n[nH]c2-c2cnn3c2N1CC3` [Compound 375, 5-chloro-3-(2,6-difluorophenyl)-2,7-dihydro-1H-2a,4,6,7,9,9a-hexaazadicyclopenta[cd,f]azulene]: the IC50 was less than 10 nM.

(Values after patent US20240067655A1 (NEURON23, INC., priority 2020, published 2024).)
